Measurements: US4138554A, “7-[D-α-(4-Hydroxy-1,5-naphthyridine-3-carboxamido)-α-phenyl (and p-hydroxyphenyl)acetamido]-3-carbamoyloxymethyl-3-cephem-4-carboxylic acids” (priority 1977, dated 1979)
Like-named read-outs stand apart in the source and are kept apart here.

Columns and labels:
[1] = test system: Pseudomonas sp.; experiment: MIC by serial two-fold agar dilution (Mueller-Hinton agar), Pseudomonas sp.; assay type: cell-based; conditions: Pseudomonas sp. A20358, Table 6
Procedure: Minimum inhibitory concentrations (MIC) of cephalosporins in the present study were determined by serial two-fold agar dilution method using Steers' apparatus on Mueller-Hinton agar plate against 31 test organisms for the primary screening and also against 61 strains of Pseudomonas aeruginosa for the secondary evaluation.

[2] = test system: Pseudomonas aeruginosa; experiment: MIC by agar dilution against 61 strains of Pseudomonas aeruginosa, secondary evaluation; assay type: cell-based; conditions: for MIC: Pseudomonas aeruginosa
Outline: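 Steers' apparatus delivers inocula onto Mueller-Hinton agar containing serial two-fold dilutions; MIC is recorded per strain.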

NC(=O)OCC1=C(C(=O)O)N2C(=O)C(NC(=O)[C@H](NC(=O)c3cnc4cccnc4c3O)c3ccc(O)cc3)C2SC1 (single isomer, unassigned) [BB-S530, Sodium 7-[D-(-)-α-(4-hydroxy-1,5-naphthyridine-3-carboxamido)-α-(p-hydroxyphenyl)acetamido]-3-carbamoyloxymethyl-3-cephem-4-carboxylate]
6.3 µg/mL: MIC ([2]; BBRI Pa-No. 1, D15, Table 7, read-out: MIC) | MIC ([2]; BBRI Pa-No. 6, No. 5, Table 7, read-out: MIC) | MIC ([2]; BBRI Pa-No. 26, Ps32, Table 7, read-out: MIC)
100 µg/mL: MIC ([2]; BBRI Pa-No. 10, Table 7, read-out: MIC) | MIC ([2]; BBRI Pa-No. 62, Table 7, read-out: MIC)
1.6 µg/mL: MIC ([2]; BBRI Pa-No. 2, VA, Table 7, read-out: MIC) | MIC ([2]; BBRI Pa-No. 4, H9 D113, Table 7, read-out: MIC) | MIC ([2]; BBRI Pa-No. 5, N4865KC, Table 7, read-out: MIC) | MIC ([2]; BBRI Pa-No. 7, Table 7, read-out: MIC) | MIC ([2]; BBRI Pa-No. 8, Table 7, read-out: MIC) | MIC ([2]; BBRI Pa-No. 9, Yale, Table 7, read-out: MIC) | MIC ([2]; BBRI Pa-No. 11, Table 7, read-out: MIC) | MIC ([2]; BBRI Pa-No. 12, Table 7, read-out: MIC) | MIC ([2]; BBRI Pa-No. 20, Table 7, read-out: MIC) | MIC ([2]; BBRI Pa-No. 21, Table 7, read-out: MIC) | MIC ([2]; BBRI Pa-No. 23, Table 7, read-out: MIC) | MIC ([2]; BBRI Pa-No. 28, CPH1C527/72, Table 7, read-out: MIC) | MIC ([2]; BBRI Pa-No. 35, Table 7, read-out: MIC) | MIC ([2]; BBRI Pa-No. 37, Table 7, read-out: MIC) | MIC ([2]; BBRI Pa-No. 41, Table 7, read-out: MIC) | MIC ([2]; BBRI Pa-No. 42, Table 7, read-out: MIC) | MIC ([2]; BBRI Pa-No. 43, Table 7, read-out: MIC) | MIC ([2]; BBRI Pa-No. 44 (unnamed strain), Table 7, read-out: MIC) | MIC ([2]; BBRI Pa-No. 52, Table 7, read-out: MIC) | MIC ([2]; BBRI Pa-No. 55, Table 7, read-out: MIC) | MIC ([2]; BBRI Pa-No. 56, Table 7, read-out: MIC) | MIC ([2]; BBRI Pa-No. 58, Table 7, read-out: MIC) | MIC ([2]; BBRI Pa-No. 61, Table 7, read-out: MIC) | MIC ([2]; BBRI Pa-No. 64, Table 7, read-out: MIC) | MIC ([2]; BBRI Pa-No. 65, Table 7, read-out: MIC) | MIC ([2]; BBRI Pa-No. 67, Table 7, read-out: MIC) | MIC ([2]; BBRI Pa-No. 68, Table 7, read-out: MIC) | MIC ([2]; GN4925, BBRI Pa-No. 44, GN4925, Table 7, read-out: MIC)
0.4 µg/mL: MIC [1] | MIC ([2]; BBRI Pa-No. 18, H8 D121, Table 7, read-out: MIC) | MIC ([2]; BBRI Pa-No. 19, Table 7, read-out: MIC) | MIC ([2]; BBRI Pa-No. 34, Table 7, read-out: MIC) | MIC ([2]; GN315, BBRI Pa-No. 27, GN315, Table 7, read-out: MIC)
1.4 µg/mL: MIC ([2]; 61 strains of Pseudomonas aeruginosa, Table 7, read-out: Geometric Mean of MIC)
12.5 µg/mL: MIC ([2]; BBRI Pa-No. 17, H6 D114, Table 7, read-out: MIC)
50 µg/mL: MIC ([2]; BBRI Pa-No. 24, Table 7, read-out: MIC)
0.8 µg/mL: MIC ([2]; BBRI Pa-No. 3, 1449VA, Table 7, read-out: MIC) | MIC ([2]; BBRI Pa-No. 14, Table 7, read-out: MIC) | MIC ([2]; BBRI Pa-No. 25, Table 7, read-out: MIC) | MIC ([2]; BBRI Pa-No. 29, D122, Table 7, read-out: MIC) | MIC ([2]; BBRI Pa-No. 30, Table 7, read-out: MIC) | MIC ([2]; BBRI Pa-No. 32, Table 7, read-out: MIC) | MIC ([2]; BBRI Pa-No. 33, Table 7, read-out: MIC) | MIC ([2]; BBRI Pa-No. 39, Table 7, read-out: MIC) | MIC ([2]; BBRI Pa-No. 51, Table 7, read-out: MIC) | MIC ([2]; BBRI Pa-No. 53, Table 7, read-out: MIC) | MIC ([2]; BBRI Pa-No. 54, Table 7, read-out: MIC) | MIC ([2]; BBRI Pa-No. 57, Table 7, read-out: MIC) | MIC ([2]; BBRI Pa-No. 59, Table 7, read-out: MIC) | MIC ([2]; BBRI Pa-No. 60, Table 7, read-out: MIC) | MIC ([2]; BBRI Pa-No. 66, Table 7, read-out: MIC) | MIC ([2]; BBRI Pa-No. 70, K-Ps102(CR-102), Table 7, read-out: MIC)
1694%: Rel. Act. (SBPC=100%) ([2]; 61 strains of Pseudomonas aeruginosa, Table 7) | Mean % Relative Activity (SPBC = 100%) ([2]; P. aerug. (61 strains), Table 5)
3.1 µg/mL: MIC ([2]; BBRI Pa-No. 15, Table 7, read-out: MIC) | MIC ([2]; BBRI Pa-No. 38, Table 7, read-out: MIC) | MIC ([2]; BBRI Pa-No. 69, Table 7, read-out: MIC)
< 0.2 µg/mL: MIC ([2]; BBRI Pa-No. 16, No. 130, Table 7, read-out: MIC) | MIC ([2]; BBRI Pa-No. 31, Table 7, read-out: MIC) | MIC ([2]; BBRI Pa-No. 36, Table 7, read-out: MIC)
